Measurements taken from article PMC11369174, “Proteome-scale characterisation of motif-based interactome rewiring by disease mutations” (Molecular Systems Biology, 2024).

What was measured:
KPNA4 ARM major = KPNA4 ARM major (Homo sapiens, UniProt O00629); assay: FP displacement assay, KPNA4 ARM major pocket; type: binding
Protocol: (§4) FP experiments were performed, as previously described (Kliche et al, [2021], [2023]), on an iD5 plate reader (Molecular devices) using black half-area non-binding 96-well plates (Corning). In order to calculate the FP signal in millipolarisation (mP), the FITC-labelled peptides were excited at 485 nm and the emitted light was measured at 535 nm in two different angles. For saturation experiments, a dilution series of the respective protein domains was generated (25 µL) and 10 nM fluorescein isothiocyanate (FITC)-labelled peptide (diluted in 50 mM sodium phosphate buffer pH 7.4, 0.05% Tween) were added in an end volume of 50 µL. A control experiment titrating GST was performed for the binding of the NEDD4 WW2 domain, since the GST-tagged construct was used for affinity measurements. For fitting the data, the buffer-corrected reduced values were plotted in GraphPad PRISM against the respective protein concentration and the KD-values were obtained by fitting against the quadratic equation (Gianni et al, [2005]).
(§5) The buffer-corrected reduced values were subsequently plotted against the logarithmic unlabelled peptide concentration to derive the IC50 values by using the sigmoidal dose-response (x is logarithmic) fit in GraphPad PRISM and calculate the KD values as described previously (Nikolovska-Coleska et al, [2004]).

KPNA4 ARM minor = KPNA4 ARM minor (Homo sapiens, UniProt O00629); assay: FP displacement assay, KPNA4 ARM minor pocket; type: binding
Protocol: as §4, §5

KPNA4 ARM = assay: GenVar_HD2 ProP-PD phage selection, KPNA4 ARM; type: binding, human; conditions: bait KPNA4 ARM; from NGS counts of overlapping wild-type/mutant library peptide pairs; positive = mutation enhances, negative = disrupts binding
GABARAPL1 ATG8 [1] = biological target: T1, GABARAPL1 ATG8 (Homo sapiens, UniProt Q9H0R8); assay: FP displacement assay, GABARAPL1 ATG8; type: binding; conditions: read-out: KD-values [µM] + SEM
Protocol: (§6) FP experiments were performed, as previously described (Kliche et al, [2021], [2023]), on an iD5 plate reader (Molecular devices) using black half-area non-binding 96-well plates (Corning). In order to calculate the FP signal in millipolarisation (mP), the FITC-labelled peptides were excited at 485 nm and the emitted light was measured at 535 nm in two different angles. For saturation experiments, a dilution series of the respective protein domains was generated (25 µL) and 10 nM fluorescein isothiocyanate (FITC)-labelled peptide (diluted in 50 mM sodium phosphate buffer pH 7.4, 0.05% Tween) were added in an end volume of 50 µL. […] For fitting the data, the buffer-corrected reduced values were plotted in GraphPad PRISM against the respective protein concentration and the KD-values were obtained by fitting against the quadratic equation (Gianni et al, [2005]).
as §5

MAP1LC3B ATG8 [2] = biological target: T2, MAP1LC3B ATG8 (Homo sapiens, UniProt Q9GZQ8); assay: FP displacement assay, MAP1LC3B ATG8; type: binding; conditions: for Kd: read-out: KD-values [µM] + SEM
Protocol: as §4, §5

GABARAPL1 ATG8 [3] = biological target: T1, GABARAPL1 ATG8; assay: GenVar_HD2 ProP-PD phage selection, GABARAPL1 ATG8; conditions: bait GABARAPL1 ATG8; from NGS counts of overlapping wild-type/mutant library peptide pairs; positive = mutation enhances, negative = disrupts binding
Protocol: (§1) Phage display screens were performed according to previous reports (Benz et al, [2022]; Ali et al, [2020]) and for four consecutive selection rounds with five to six replicates per bait protein domain against the […] library.
(§2) On the first day, both bait (15 µg in 100 µL PBS) and control protein domains (GST and MBP; 10 µg in 100 µL PBS) were immobilised on a 96-well MaxiSorb plate (Nunc) overnight in the cold room while shaking. Additionally, a 10 mL culture of Omnimax E. coli bacteria supplemented with 10 µg/mL tetracycline was incubated overnight at 37 °C at 200 rpm.
(§3) First, protein solutions were removed from both control and bait protein domain plates and the wells were blocked with 0.5% BSA in PBS (200 µL/well) for 1 h in the cold room while shaking. After that, three Omnimax E. coli cultures were started supplemented with either 30 µg/mL kanamycin, 100 µg/mL carbenicillin and 10 µg/mL tetracycline and incubated at 37 °C and 200 rpm. The two first cultures served as a means to check for helper phage contamination (kanamycin) and phages with library phagemid contamination (carbenicillin) of the culture used for elution of the phages during selections. The tetracycline Omnimax E. coli culture was grown until OD at 600 nm reached 0.6–0.8. […]

MAP1LC3B ATG8 [4] = biological target: T2, MAP1LC3B ATG8; assay: GenVar_HD2 ProP-PD phage selection, MAP1LC3B ATG8; conditions: bait MAP1LC3B ATG8; from NGS counts of overlapping wild-type/mutant library peptide pairs; positive = mutation enhances, negative = disrupts binding
Protocol: as §1, §2
First, protein solutions were removed from both control and bait protein domain plates and the wells were blocked with 0.5% BSA in PBS (200 µL/well) for 1 h in the cold room while shaking. After that, three Omnimax E. coli cultures were started supplemented with either 30 µg/mL kanamycin, 100 µg/mL carbenicillin and 10 µg/mL tetracycline and incubated at 37 °C and 200 rpm. The two first cultures served as a means to check for helper phage contamination (kanamycin) and phages with library phagemid contamination (carbenicillin) of the culture used for elution of the phages during selections. The tetracycline Omnimax E. coli culture was grown until OD at 600 nm reached 0.6–0.8.
Naïve phage libraries were precipitated (10 µL/well of bait protein domain) by diluting the library tenfold with PBS, adding one-fourth of 20% […] and 400 mM NaCl and incubating the mixture for 15 min on ice. Subsequently, phages were spun down for 15 min at 13,000 × g and resuspended in 0.5% BSA and 0.05% Tween-20 in PBS (100 µL/well). Control domain plates were washed four times with 200 µL 0.05% Tween-20 in PBS, 100 µL of the naïve phage library (10^11 phages/mL) were added to every well and the plates incubated for 1 h in the cold room while shaking. Next, protein bait domain plates were washed four times with 0.05% Tween-20 in PBS and the phage solution from the control protein plate was transferred to the respective wells on the protein bait domain plate. […]

NEDD4 WW2 [5] = biological target: T3, NEDD4 WW2 (Homo sapiens, UniProt P46934); assay: FP displacement assay, NEDD4 WW2; type: binding; conditions: read-out: KD-values [µM] + SEM
Protocol: For saturation experiments, a dilution series of the respective protein domains was generated (25 µL) and 10 nM fluorescein isothiocyanate (FITC)-labelled peptide (diluted in 50 mM sodium phosphate buffer pH 7.4, 0.05% Tween) were added in an end volume of 50 µL. A control experiment titrating GST was performed for the binding of the NEDD4 WW2 domain, since the GST-tagged construct was used for affinity measurements.
If the raw values indicated a FITC-contamination of the unlabelled peptide, the data was excluded and a new batch of peptide was ordered for remeasuring the affinity.

NEDD4 WW2 [6] = biological target: T3, NEDD4 WW2; assay: GenVar_HD2 ProP-PD phage selection, NEDD4 WW2; conditions: bait NEDD4 WW2; from NGS counts of overlapping wild-type/mutant library peptide pairs; positive = mutation enhances, negative = disrupts binding
Protocol: as §1, §2, §3

USP7 MATH/TRAF = USP7 MATH/TRAF (Homo sapiens, UniProt Q93009); assay: FP displacement assay, USP7 MATH/TRAF; type: binding; conditions: read-out: KD-values [µM] + SEM
Protocol: as §6, §5

CASK kinase domain [7] = biological target: T4, CASK kinase domain (Homo sapiens, UniProt O14936); assay: GenVar_HD2 ProP-PD phage selection, CASK kinase domain; conditions: bait CASK kinase domain; from NGS counts of overlapping wild-type/mutant library peptide pairs; positive = mutation enhances, negative = disrupts binding
T4 sequence (O14936 1-340): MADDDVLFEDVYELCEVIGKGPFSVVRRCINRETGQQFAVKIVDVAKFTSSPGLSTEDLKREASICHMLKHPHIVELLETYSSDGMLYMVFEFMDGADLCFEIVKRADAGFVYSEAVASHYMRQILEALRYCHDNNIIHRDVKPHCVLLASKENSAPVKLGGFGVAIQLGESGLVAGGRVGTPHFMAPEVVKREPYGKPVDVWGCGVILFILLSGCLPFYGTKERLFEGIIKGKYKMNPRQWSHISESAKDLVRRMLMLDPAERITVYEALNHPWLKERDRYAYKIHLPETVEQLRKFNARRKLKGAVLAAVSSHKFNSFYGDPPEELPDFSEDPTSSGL
Protocol: as §1, §2, §3

G3BP1 NTF2 [8] = biological target: T5, G3BP1 NTF2 (Homo sapiens, UniProt Q13283); conditions: FP displacement of FITC-N_SARS-CoV-2 (10 nM) complexed with domain (1-2x KD), 50 mM sodium phosphate pH 7.4, KD from IC50, technical triplets, n.b. = not binding within concentration range used
CLTC NTD [9] = biological target: T6, CLTC NTD (Homo sapiens, UniProt Q00610); assay: FP displacement assay, CLTC NTD; type: binding; conditions: read-out: KD-values [µM] + SEM
T6 sequence (Q00610 1-364): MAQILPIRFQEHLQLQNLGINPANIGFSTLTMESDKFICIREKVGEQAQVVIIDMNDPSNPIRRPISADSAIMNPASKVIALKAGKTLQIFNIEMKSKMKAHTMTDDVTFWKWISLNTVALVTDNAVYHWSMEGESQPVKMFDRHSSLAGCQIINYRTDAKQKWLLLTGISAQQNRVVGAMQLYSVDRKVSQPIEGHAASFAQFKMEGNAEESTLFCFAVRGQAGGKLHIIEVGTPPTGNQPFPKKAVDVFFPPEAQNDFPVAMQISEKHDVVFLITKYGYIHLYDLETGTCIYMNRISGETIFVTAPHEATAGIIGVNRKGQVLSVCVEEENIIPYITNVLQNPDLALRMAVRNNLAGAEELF
Protocol: as §6, §5

CLTC NTD [10] = biological target: T6, CLTC NTD; assay: GenVar_HD2 ProP-PD phage selection, CLTC NTD; conditions: bait CLTC NTD; from NGS counts of overlapping wild-type/mutant library peptide pairs; positive = mutation enhances, negative = disrupts binding
Protocol: as §1, §2, §3

CASK kinase domain [11] = biological target: T4, CASK kinase domain; assay: FP displacement assay, CASK kinase domain; conditions: FP displacement of FITC-PER2 (10 nM) complexed with domain (1-2x KD), 50 mM sodium phosphate pH 7.4, 100 mM NaCl, KD from IC50, technical triplets, n.b. = not binding within concentration range used
Protocol: as §4, §5

G3BP1 NTF2 [12] = biological target: T5, G3BP1 NTF2; assay: GenVar_HD2 ProP-PD phage selection, G3BP1 NTF2; conditions: bait G3BP1 NTF2; from NGS counts of overlapping wild-type/mutant library peptide pairs; positive = mutation enhances, negative = disrupts binding
Protocol: as §1, §2, §3

G3BP2 NTF2 [13] = biological target: T7, G3BP2 NTF2 (Homo sapiens, UniProt Q9UN86); assay: FP displacement assay, G3BP2 NTF2; conditions: FP displacement of FITC-N_SARS-CoV-2 (10 nM) complexed with domain (1-2x KD), 50 mM sodium phosphate pH 7.4, KD from IC50, technical triplets, n.b. = not binding within concentration range used
T7 sequence (Q9UN86 1-139): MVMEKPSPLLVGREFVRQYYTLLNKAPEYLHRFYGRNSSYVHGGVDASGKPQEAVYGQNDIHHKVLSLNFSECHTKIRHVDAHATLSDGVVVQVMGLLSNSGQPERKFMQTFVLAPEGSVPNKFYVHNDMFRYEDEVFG

G3BP2 NTF2 [14] = biological target: T7, G3BP2 NTF2; assay: GenVar_HD2 ProP-PD phage selection, G3BP2 NTF2; conditions: bait G3BP2 NTF2; from NGS counts of overlapping wild-type/mutant library peptide pairs; positive = mutation enhances, negative = disrupts binding
Protocol: as §1, §2, §3

T5 sequence (Q13283 1-139): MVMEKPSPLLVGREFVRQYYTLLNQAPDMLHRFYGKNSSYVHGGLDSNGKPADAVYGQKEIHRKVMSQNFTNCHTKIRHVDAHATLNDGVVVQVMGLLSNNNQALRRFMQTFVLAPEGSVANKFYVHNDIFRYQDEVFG
T3 sequence (P46934 765-803 limits assumed): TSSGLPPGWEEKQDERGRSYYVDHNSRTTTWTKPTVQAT
T1 sequence (Q9H0R8 2-115): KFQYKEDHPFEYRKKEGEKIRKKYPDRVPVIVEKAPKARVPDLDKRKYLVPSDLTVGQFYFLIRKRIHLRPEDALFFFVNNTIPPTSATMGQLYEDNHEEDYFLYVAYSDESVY
KPNA4 ARM minor, sequence (O00629 68-487): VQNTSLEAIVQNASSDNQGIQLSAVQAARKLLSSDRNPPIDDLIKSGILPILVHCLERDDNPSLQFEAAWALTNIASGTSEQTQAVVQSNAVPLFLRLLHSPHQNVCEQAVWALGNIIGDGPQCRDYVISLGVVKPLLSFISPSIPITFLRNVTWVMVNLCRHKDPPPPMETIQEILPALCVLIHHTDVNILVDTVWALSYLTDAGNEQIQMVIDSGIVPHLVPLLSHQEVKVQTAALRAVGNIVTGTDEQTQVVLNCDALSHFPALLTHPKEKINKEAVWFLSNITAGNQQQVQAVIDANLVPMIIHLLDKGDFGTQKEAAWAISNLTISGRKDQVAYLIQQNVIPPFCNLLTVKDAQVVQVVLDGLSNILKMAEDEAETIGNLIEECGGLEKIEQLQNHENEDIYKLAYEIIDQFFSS
KPNA4 ARM major, sequence (O00629 68-487): as above
USP7 MATH/TRAF, sequence (Q93009 53-206): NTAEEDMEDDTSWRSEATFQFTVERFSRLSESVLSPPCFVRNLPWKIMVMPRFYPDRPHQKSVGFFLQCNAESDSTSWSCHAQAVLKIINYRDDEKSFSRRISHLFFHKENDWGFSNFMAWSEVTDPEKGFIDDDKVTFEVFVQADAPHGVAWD

Ac-PELWVAHRTAQHLSAT-NH2 [ZNF526_152-167 L160T]
KD-values [µM] + SEM (KPNA4 ARM major; major pocket, FP displacement of FITC-MYC (10 nM) complexed with domain (1-2x KD), 50 mM sodium phosphate pH 7.4, KD from IC50, ± SEM, n.b. = not binding within concentration range used): n.b.
Kd (KPNA4 ARM minor; read-out: KD-values [µM] + SEM): 395 ± 10 µM
Mutation enrichment score (KPNA4 ARM): −6.4

Ac-DKDEWQFLDQNEDAFE-NH2 [BUB1_486-501 S492F]
Kd (GABARAPL1 ATG8 [1]): < 0.3 µM
increase in affinity, mutant vs wild-type peptide (MAP1LC3B ATG8 [2]; from FP displacement KD values, MAP1LC3B ATG8): four-fold increase in affinity
Kd (MAP1LC3B ATG8 [2]): 1.6 ± 0.1 µM
Mutation enrichment score (GABARAPL1 ATG8 [3]): 16
Mutation enrichment score (MAP1LC3B ATG8 [4]): 12

Ac-PIPGTRPPNYDSLRLQ-NH2 [SCNN1B_611-626 P616R]
Kd (NEDD4 WW2 [5]): 80 ± 7 µM
Mutation enrichment score (NEDD4 WW2 [6]): −12

Ac-YISSSSTSTMPNSSQSS-NH2 [CHK2_38-53 wild-type]
Kd (USP7 MATH/TRAF): 3.1 ± 0.2 µM

CSCC[C@H](NC(C)=O)C(=O)N[C@@H](CO)C(=O)N[C@@H](CC(=O)O)C(=O)N[C@@H](CC(C)C)C(=O)N[C@@H](Cc1c[nH]c2ccccc12)C(=O)N[C@H](C(=O)N1CCC[C@H]1C(=O)N[C@@H](CC(N)=O)C(=O)N[C@@H](CO)C(=O)N[C@@H](C)C(=O)N[C@@H](CO)C(=O)NCC(=O)N[C@@H](CCC(N)=O)C(=O)N[C@@H](CC(=O)O)C(=O)N1CCC[C@H]1C(=O)NCC(N)=O)C(C)C [FANCA_1-16 S4L]
Mutation enrichment score (CASK kinase domain [7]): 6

Ac-PIPGTPPRNYDSLRLQ-NH2 [SCNN1B_611-626 P618R]
Kd (NEDD4 WW2 [5]): 603 ± 73 µM
Mutation enrichment score (NEDD4 WW2 [6]): −16

Ac-YLLDGPPNPERAKLSS-NH2 [CREBBP_5-19 K13E]
Kd (KPNA4 ARM major; read-out: KD-values [µM] + SEM): 860 ± 20 µM
KD-values [µM] + SEM (KPNA4 ARM minor; minor pocket, FP displacement of FITC-NCOR2 (10 nM) complexed with domain (1-2x KD), 50 mM sodium phosphate pH 7.4, KD from IC50, technical triplets, ± SEM, n.b. = not binding within concentration range used): n.b.
Mutation enrichment score (KPNA4 ARM): −6

H3COC-QQSYLD(S/F)GIHSGATTT-NH2 [CTNNB1_27-42 wild-type]
KD-values [µM] + SEM (G3BP1 NTF2 [8]): no binding and n.b.

Ac-SGNLIDLYGNQGLPY-NH2 [MITF_258-271 wild-type]
Kd (CLTC NTD [9]): 191 ± 27 µM

Ac-YSGDTSPWHLSNVSST-NH2 [MAPT_717-731 R723W]
Mutation enrichment score (CASK kinase domain [7]): 12

Ac-SGNLIDLCGNQGLPY-NH2 [MITF_258-271 Y265C]
Kd (CLTC NTD [9]): 206 ± 13 µM
Mutation enrichment score (CLTC NTD [10]): −9.8

H3COC-MSD(S/L)WVPNSASGQDPG-NH2 [FANCA_1-16 wild-type, wild-type FANCA peptide, residues 1-16]
KD-values [µM] + SEM (CASK kinase domain [11]): n.b.

H3COC-YSGDTSP(R/W)HLSNVSST-NH2 [MAPT_717-731 wild-type, wild-type MAPT peptide, residues 717-731]
KD-values [µM] + SEM (CASK kinase domain [11]): no binding and n.b.

Ac-QQSYLDFGIHSGATTT-NH2 [CTNNB1_27-42 S33F]
Mutation enrichment score (G3BP1 NTF2 [12]): 9

CC(=O)N[C@@H](CCC(=O)O)C(=O)N[C@@H](Cc1ccccc1)C(=O)N1CCC[C@H]1C(=O)N[C@H](C(=O)N1CCC[C@H]1C(=O)N[C@@H](Cc1ccccc1)C(=O)N[C@@H](Cc1ccccc1)C(=O)NCC(=O)N[C@@H](CO)C(=O)N[C@@H](CC(N)=O)C(=O)N[C@@H](CC(=O)O)C(=O)N[C@@H](Cc1ccc(O)cc1)C(=O)N[C@@H](CC(C)C)C(=O)N[C@@H](Cc1c[nH]c2ccccc12)C(=O)N[C@H](C(=O)N[C@@H](Cc1c[nH]cn1)C(N)=O)[C@@H](C)O)C(C)C [NSD1_1793-1808 L1797P]
Mutation enrichment score (G3BP1 NTF2 [12]): −7.4

Ac-DLLTCGQAQMNFPY-NH2 [BCL11A_44-56 wild-type]
KD-values [µM] + SEM (G3BP2 NTF2 [13]): n.b.

Ac-DLLTFGQAQMNFPY-NH2 [BCL11A_44-56 C48F]
Mutation enrichment score (CLTC NTD [10]): 12
Mutation enrichment score (G3BP2 NTF2 [14]): 10

Ac-DKDEWQSLDQNEDAFE-NH2 [BUB1_486-501 wild-type]
Kd (GABARAPL1 ATG8 [1]): 5.5 ± 0.7 µM
Kd (MAP1LC3B ATG8 [2]): 7 ± 1 µM
